Reference: publication PMC4501059, “Responding to the challenge of untreatable gonorrhea: ETX0914, a first-in-class agent with a distinct mechanism-of-action against bacterial Type II topoisomerases” (Scientific Reports, 2015)
Converted amounts (≈) assume the structure as drawn. Like-named read-outs stand apart in the source and are kept apart here.

How the values were obtained:
Staphylococcus aureus = details: cited from earlier work
mouse lymphoma cells = assay: in vitro mouse micronucleus aberration assay (MMA); type: cell-based
Protocol: (§1) In vitro toxicology. Experiments for assessing micronuclei in mouse lymphoma cells^19 myeloid cytotoxicity^20 and erythroid cytotoxicity^21 were performed as described previously.

Neisseria gonorrhoeae = details: cited from earlier work
hCav1.2 = hCav1.2 (Homo sapiens, UniProt Q13936); assay: In vitro ion channel function; type: cell-based; details: hCav1.2 IC50, Ca^2+ entry into excitable cells
Text: (§2) Supplement srep11827-s1.doc, table 3 | column: Table S2: In vitro ion channel function IC50 (µM)

Kv1.5 = Kv1.5 (Homo sapiens, UniProt P22460); assay: In vitro ion channel function; type: cell-based; details: Ikr/Kv1.5 IC50, Rapidly activating K^+ delayed rectifier
Sequence of Kv1.5 (P22460 whole entry): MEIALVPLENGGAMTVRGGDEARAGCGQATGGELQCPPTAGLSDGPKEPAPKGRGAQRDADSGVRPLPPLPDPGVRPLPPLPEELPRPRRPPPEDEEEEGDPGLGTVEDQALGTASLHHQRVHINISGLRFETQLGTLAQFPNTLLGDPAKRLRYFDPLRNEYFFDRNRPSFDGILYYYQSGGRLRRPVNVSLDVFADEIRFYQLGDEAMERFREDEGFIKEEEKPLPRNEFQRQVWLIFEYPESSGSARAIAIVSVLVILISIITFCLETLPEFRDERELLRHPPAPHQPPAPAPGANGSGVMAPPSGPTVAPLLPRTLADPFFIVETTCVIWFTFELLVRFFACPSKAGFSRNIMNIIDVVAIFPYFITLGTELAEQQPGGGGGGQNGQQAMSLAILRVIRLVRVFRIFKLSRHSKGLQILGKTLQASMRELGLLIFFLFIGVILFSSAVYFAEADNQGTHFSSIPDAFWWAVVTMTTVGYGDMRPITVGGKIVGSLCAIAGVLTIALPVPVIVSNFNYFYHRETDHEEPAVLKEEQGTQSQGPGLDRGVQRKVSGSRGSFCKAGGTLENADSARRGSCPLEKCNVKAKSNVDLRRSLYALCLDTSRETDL
Text: as §2

Ito/Kv4.3 = target: T1, Ito/Kv4.3 (Homo sapiens, UniProt Q9UK17); assay: In vitro ion channel function; type: cell-based; details: Ito/Kv4.3 IC50, Transient outward K^+ early repolarization
T1 sequence (Q9UK17 1-655): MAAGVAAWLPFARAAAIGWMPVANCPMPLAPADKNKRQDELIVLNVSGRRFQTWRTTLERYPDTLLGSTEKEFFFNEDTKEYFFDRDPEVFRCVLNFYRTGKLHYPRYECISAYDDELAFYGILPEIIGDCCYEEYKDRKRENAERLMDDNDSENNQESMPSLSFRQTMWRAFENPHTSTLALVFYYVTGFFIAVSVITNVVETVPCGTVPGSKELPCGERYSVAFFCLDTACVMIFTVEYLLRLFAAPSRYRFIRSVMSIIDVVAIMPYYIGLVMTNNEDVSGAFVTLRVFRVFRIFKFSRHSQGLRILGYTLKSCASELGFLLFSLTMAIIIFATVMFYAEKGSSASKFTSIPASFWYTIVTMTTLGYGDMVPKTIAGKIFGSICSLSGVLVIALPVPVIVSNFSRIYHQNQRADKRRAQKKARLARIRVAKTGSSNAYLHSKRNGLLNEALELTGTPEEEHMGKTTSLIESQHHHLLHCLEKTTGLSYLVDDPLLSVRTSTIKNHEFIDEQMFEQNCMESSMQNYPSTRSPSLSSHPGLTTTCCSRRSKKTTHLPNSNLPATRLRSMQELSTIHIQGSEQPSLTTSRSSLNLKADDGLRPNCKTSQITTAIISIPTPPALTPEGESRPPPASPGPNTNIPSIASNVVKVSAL
Text: as §2

Iks/Kv7.1 = Iks/Kv7.1 (Homo sapiens, UniProt P51787); assay: In vitro ion channel function; type: cell-based; details: Iks/Kv7.1 IC50, Slowly activating K^+ delayed rectifier
Sequence of Iks/Kv7.1 (P51787 whole entry): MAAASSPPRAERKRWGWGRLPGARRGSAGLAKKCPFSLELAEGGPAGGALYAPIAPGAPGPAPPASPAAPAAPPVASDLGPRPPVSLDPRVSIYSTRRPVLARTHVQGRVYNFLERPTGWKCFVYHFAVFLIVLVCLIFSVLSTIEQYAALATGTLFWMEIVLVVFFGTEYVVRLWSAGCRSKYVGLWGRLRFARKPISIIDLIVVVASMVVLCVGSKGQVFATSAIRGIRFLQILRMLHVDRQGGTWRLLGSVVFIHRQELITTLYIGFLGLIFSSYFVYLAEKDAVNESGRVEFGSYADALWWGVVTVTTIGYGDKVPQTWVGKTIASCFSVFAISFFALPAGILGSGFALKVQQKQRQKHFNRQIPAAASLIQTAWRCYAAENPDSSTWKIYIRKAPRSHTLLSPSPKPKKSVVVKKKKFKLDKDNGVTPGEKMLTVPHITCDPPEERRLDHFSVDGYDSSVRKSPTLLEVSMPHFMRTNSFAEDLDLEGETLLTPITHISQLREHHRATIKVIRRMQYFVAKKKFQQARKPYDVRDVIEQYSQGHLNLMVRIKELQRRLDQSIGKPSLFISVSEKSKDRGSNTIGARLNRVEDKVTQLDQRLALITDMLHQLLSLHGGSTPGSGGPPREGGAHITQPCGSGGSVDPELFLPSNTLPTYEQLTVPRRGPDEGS
Text: as §2

hNav1.5 = hNav1.5 (Homo sapiens, UniProt Q14524); assay: In vitro ion channel function; type: cell-based; details: hNav1.5 IC50, Initiation of cardiac action potential/QRS interval
Sequence of hNav1.5 (Q14524 whole entry): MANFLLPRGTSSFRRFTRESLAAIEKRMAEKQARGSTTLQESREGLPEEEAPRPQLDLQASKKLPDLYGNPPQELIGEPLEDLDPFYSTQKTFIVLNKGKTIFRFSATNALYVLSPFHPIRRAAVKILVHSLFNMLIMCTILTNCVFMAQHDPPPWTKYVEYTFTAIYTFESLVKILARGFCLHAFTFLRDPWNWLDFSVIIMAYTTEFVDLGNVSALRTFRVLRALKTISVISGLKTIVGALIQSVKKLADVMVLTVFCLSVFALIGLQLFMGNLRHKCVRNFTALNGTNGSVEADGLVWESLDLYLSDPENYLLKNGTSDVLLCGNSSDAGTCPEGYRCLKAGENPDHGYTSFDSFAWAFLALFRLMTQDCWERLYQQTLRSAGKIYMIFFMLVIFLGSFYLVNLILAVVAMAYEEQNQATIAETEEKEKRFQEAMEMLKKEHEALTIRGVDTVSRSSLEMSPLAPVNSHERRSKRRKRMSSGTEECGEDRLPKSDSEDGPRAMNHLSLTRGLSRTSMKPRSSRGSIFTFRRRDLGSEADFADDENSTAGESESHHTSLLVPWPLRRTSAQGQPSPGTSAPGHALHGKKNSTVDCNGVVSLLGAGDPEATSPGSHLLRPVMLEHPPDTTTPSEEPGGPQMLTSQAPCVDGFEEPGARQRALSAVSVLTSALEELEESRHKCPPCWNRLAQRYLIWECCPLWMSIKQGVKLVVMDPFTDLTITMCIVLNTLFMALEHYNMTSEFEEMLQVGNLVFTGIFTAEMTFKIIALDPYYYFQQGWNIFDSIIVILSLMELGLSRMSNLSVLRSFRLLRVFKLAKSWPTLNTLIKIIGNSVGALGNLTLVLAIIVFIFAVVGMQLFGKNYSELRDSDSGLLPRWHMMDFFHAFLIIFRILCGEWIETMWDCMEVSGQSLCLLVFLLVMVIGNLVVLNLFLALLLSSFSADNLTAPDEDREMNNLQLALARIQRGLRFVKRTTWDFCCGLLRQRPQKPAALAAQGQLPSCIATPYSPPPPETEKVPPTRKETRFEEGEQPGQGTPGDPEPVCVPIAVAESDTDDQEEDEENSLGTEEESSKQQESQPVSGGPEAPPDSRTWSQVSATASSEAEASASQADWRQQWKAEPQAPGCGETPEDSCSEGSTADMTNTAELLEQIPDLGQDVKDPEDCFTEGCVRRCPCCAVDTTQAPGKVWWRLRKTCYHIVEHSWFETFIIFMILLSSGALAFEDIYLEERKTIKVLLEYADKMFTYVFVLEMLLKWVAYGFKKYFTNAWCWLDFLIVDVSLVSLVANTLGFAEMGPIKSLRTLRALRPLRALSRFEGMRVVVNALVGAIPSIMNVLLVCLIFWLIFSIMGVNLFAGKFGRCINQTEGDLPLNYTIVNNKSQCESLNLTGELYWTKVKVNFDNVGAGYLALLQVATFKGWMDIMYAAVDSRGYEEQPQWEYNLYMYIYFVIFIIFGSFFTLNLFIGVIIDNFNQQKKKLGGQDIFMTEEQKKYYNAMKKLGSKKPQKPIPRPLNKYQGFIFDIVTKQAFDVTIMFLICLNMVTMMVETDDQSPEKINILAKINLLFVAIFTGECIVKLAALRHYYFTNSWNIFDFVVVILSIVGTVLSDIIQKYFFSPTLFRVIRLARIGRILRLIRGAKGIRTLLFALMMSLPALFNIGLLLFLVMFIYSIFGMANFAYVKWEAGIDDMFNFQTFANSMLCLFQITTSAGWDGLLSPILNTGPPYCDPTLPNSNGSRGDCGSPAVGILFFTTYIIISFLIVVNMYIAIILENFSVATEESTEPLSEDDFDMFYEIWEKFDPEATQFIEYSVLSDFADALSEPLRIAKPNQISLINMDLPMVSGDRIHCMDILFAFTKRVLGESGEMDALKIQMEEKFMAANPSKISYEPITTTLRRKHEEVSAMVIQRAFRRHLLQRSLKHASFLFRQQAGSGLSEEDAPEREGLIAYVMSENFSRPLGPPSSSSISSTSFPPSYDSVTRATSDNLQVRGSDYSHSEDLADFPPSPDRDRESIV
Text: as §2

hERG = hERG (Homo sapiens, UniProt Q12809); assay: In vitro ion channel function; details: hERG IC50, K^+ rectifying current/QT interval
Sequence of hERG (Q12809 whole entry): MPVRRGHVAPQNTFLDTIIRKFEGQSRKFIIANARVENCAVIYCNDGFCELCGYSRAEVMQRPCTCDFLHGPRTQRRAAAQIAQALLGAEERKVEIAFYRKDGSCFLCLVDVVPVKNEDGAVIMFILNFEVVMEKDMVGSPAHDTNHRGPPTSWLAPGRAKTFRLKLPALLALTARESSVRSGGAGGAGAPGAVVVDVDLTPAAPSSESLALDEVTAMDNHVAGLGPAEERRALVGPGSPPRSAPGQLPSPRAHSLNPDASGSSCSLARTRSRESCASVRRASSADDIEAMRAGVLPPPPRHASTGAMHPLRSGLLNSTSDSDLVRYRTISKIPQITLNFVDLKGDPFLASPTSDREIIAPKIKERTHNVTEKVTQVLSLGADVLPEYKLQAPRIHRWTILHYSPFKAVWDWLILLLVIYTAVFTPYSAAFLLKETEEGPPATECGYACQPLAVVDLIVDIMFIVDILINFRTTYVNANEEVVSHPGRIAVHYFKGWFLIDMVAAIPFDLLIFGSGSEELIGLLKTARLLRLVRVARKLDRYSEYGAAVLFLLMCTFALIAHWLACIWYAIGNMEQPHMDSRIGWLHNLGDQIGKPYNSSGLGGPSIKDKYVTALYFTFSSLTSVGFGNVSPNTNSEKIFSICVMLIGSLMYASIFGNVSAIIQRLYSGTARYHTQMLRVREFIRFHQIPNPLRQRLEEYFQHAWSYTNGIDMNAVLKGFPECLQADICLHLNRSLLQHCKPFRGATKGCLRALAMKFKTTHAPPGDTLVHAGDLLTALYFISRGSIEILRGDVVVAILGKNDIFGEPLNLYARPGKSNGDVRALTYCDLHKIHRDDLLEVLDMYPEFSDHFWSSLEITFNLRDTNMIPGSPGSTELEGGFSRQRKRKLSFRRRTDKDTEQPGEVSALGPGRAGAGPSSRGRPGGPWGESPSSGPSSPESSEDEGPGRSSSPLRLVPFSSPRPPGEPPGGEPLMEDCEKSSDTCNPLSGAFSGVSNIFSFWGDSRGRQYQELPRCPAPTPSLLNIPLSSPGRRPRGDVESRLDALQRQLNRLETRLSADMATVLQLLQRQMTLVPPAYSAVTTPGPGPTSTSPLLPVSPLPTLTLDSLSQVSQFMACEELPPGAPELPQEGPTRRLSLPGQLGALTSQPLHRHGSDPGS

S. aureus ARC516 = assay: MIC (CLSI broth microdilution); type: cell-based
S. pneumoniae ATCC49619 = assay: MIC (CLSI broth microdilution); type: cell-based
[1] = tested on: S. aureus AP607004 (MRQR); assay: MIC (CLSI broth microdilution); type: cell-based
[2] = Human plasma protein binding (PPB); details: plasma
N. gonorrhoeae ATCC49226 = assay: MIC (CLSI agar dilution); type: cell-based
[3] = tested on: S. pneumoniae ARC2205 (ERQR); assay: MIC (CLSI broth microdilution); type: cell-based
[4] = comparative haematology analysis in the rat, oral dosing; details: for AUC: in vivo, po
Dog pharmacokinetics = type: in vivo, Beagle dog; details: beagle, dog, plasma
Protocol: AZD0914 was analyzed in mouse, rat, dog, monkey plasma using a qualified method which was later validated for human plasma analysis. The validated human method is described below and is representative of the approach taken in other species. AZD0914 was determined in human plasma prepared with K2EDTA as an anticoagulant. AZD0914 and an internal standard (^13C2, ^15N2 AZD0914) were extracted from plasma with tert- butyl methyl ether. After evaporating to dryness under a stream of nitrogen, the residue was reconstituted and quantitated by reverse phase HPLC-MS/MS against a standard curve from 1.00 to 5000 ng/ml. Separation was achieved using a gradient which went from 55% to 85% methanol:acetonitrile (1:1) containing 0.2% formic acid as mobile phase B and 0.2% formic acid in water as mobile phase A at a flow rate of 0.60 ml/min through a Phenomonex Gemini C18 column (50 x 2.0 mm column, […]) heated using a Shimadzu CTO-20AC set to 40 °C. AZD0914 was detected in multiple reaction monitoring (MRM) mode by positive ion electrospray ionization using a Sciex API5500 (Toronto, Canada) mass spectrometer. The ion spray voltage was set to 5500 V and turboionspray temperature was 650 °C. AZD0914 was quantitated using the MRM transition 488.2 → 348.2 using a collision energy of 29 eV. The internal standard, (^13C2, ^15N2 AZD0914), was monitored using identical conditions except for the MRM transition of 492.2 → 348.2.

[5] = tested on: N. gonorrhoeae ARC4676 (QR); type: cell-based
[6] = tested on: mammalian myeloid cell lines; assay: myeloid cytotoxicity (growth inhibition); type: cell-based; details: read-out: Myeloid IC50
Protocol: as §1

[7] = tested on: mammalian erythroid cell lines; assay: erythroid cytotoxicity (growth inhibition); type: cell-based; details: read-out: Erythroid IC50
Protocol: as §1

[8] = tested on: resistant isolates of S. aureus, S. pneumoniae and N. gonorrhoeae; type: cell-based; details: for susceptibility of spontaneous ETX0914 resistant mutants: S. aureus and N. gonorrhoeae GyrB mutants
[9] = Table 2, first entry of the cell (ciprofloxacin: 250 mg UID line)

SMILES: CO/N=C(\C(=O)N[C@@H]1C(=O)N2C(C(=O)O)=C(CSc3nc(=O)c(=O)[nH]n3C)CS[C@H]12)c1csc(N)n1 [Ceftriaxone, reference compound]
- MIC90 for S. aureus (Staphylococcus aureus): 8 µg/mL

SMILES: O=C(O)c1cn(C2CC2)c2cc(N3CCNCC3)c(F)cc2c1=O [Ciprofloxacin 2, Ciprofloxacin, reference compound]
- Micronucleus NOEL (mouse lymphoma cells; mouse): 200 µM
- MIC90, gonococcal infection (N. gonorrhoeae) (Neisseria gonorrhoeae; [9]): 0.06 to 0.12 µg/mL
- MIC90, gonococcal infection (N. gonorrhoeae) (Neisseria gonorrhoeae; second entry of the cell, 500 mg UID line): 0.25 to 0.5 µg/mL

SMILES: C[C@@H]1CN2c3c(cc4c(N5C(=O)OC[C@@H]5C)noc4c3F)CC3(C(=O)NC(=O)NC3=O)[C@H]2[C@H](C)O1 [Compound 1]
- IC50 (hCav1.2): > 100 µM
- IC50 (Kv1.5): > 100 µM
- IC50 (Ito/Kv4.3): > 292 µM
- IC50 (Iks/Kv7.1): > 316 µM
- IC50 (hNav1.5): > 316 µM
- IC50 (hERG): 232 µM

SMILES: C[C@@H]1CN2c3c(cc4c(-n5cncn5)noc4c3F)CC3(C(=O)NC(=O)NC3=O)[C@H]2[C@H](C)O1 [Compound 6]
- Micronucleus NOEL (mouse lymphoma cells; in vitro): 3 µM
- solubility (physchem): 73 µM (≈ 33.2 µg/mL)
- MIC: S. aureus ARC516 (S. aureus ARC516): 0.031 µg/mL (≈ 0.0681 µM)
- MIC: S. pneumoniae ATCC49619 (S. pneumoniae ATCC49619): 0.125 µg/mL (≈ 0.274 µM)
- MIC: S. aureus AP607004 (MRQR) [1]: 0.063 µg/mL (≈ 0.138 µM)
- IC50 (hCav1.2): > 100 µM
- IC50 (Ito/Kv4.3): 224 µM
- IC50 (Iks/Kv7.1): > 333 µM
- IC50 (hNav1.5): > 333 µM
- fraction unbound [2]: 0.13
- MIC: N. gonorrhoeae ATCC49226 (N. gonorrhoeae ATCC49226): 0.25 µg/mL (≈ 0.549 µM)
- MIC: S. pneumoniae ARC2205 (ERQR) [3]: 0.125 µg/mL (≈ 0.274 µM)
- IC50 (hERG): 237 µM
- haematologic effects ([4]; 100 mg/kg/day for 14 days in the rat): decreases in reticulocytes, neutrophils, lymphocytes and monocytes
- AUC ([4]; rat, 100 mg/kg): 950 µM·h
- AUC ([4]; rat, 250 mg/kg): 1700 µM·h
- reticulocytes count ([4]; rat, 6 at the higher dose (250 mg/kg, 5 d), linezolid 6 d): significant suppression
- neutrophil count ([4]; rat, both doses of 6, linezolid): showing suppression
- lymphocyte counts ([4]; rat, higher dose of 6): leading to suppression
- white blood cell count ([4]; rat, higher dose of 6): leading to suppression
- Dog F (Dog pharmacokinetics): 99%
- clearance (Dog pharmacokinetics): 4.5 mL/min/kg
- MIC: N. gonorrhoeae ARC4676 (QR) [5]: 0.125 µg/mL (≈ 0.274 µM)

SMILES: Cc1nnc(-c2noc3c(F)c4c(cc23)CC2(C(=O)NC(=O)NC2=O)[C@H]2[C@H](C)O[C@H](C)CN42)o1 [Compound 8]
- Micronucleus NOEL (mouse lymphoma cells; in vitro): > 200 µM
- solubility (physchem): 1350 µM (≈ 635 µg/mL)
- MIC: S. aureus ARC516 (S. aureus ARC516): 0.25 µg/mL (≈ 0.531 µM)
- MIC: S. pneumoniae ATCC49619 (S. pneumoniae ATCC49619): 0.125 µg/mL (≈ 0.266 µM)
- MIC: S. aureus AP607004 (MRQR) [1]: 0.25 µg/mL (≈ 0.531 µM)
- IC50 [6]: 76 µM
- fraction unbound [2]: 0.13
- IC50 [7]: > 100 µM
- MIC: N. gonorrhoeae ATCC49226 (N. gonorrhoeae ATCC49226): 1 µg/mL (≈ 2.13 µM)
- MIC: S. pneumoniae ARC2205 (ERQR) [3]: 0.25 µg/mL (≈ 0.531 µM)
- Dog F (Dog pharmacokinetics): 32%
- clearance (Dog pharmacokinetics): 4.7 mL/min/kg
- MIC: N. gonorrhoeae ARC4676 (QR) [5]: 1 µg/mL (≈ 2.13 µM)

SMILES: CO/N=C1\CN(c2nc3c(cc2F)c(=O)c(C(=O)O)cn3C2CC2)CC1CN (centres unmarked) [Gemifloxacin, reference compound]
- concentration giving a measurable genotoxicity signal in the in vitro MMA (mouse lymphoma cells): 6 µM
- Micronucleus NOEL (mouse lymphoma cells; in vitro): 3 µM
- IC50 [6]: 10 µM
- IC50 [7]: 7 µM

SMILES: C[C@H]1COc2c(N3CCN(C)CC3)c(F)cc3c(=O)c(C(=O)O)cn1c23 [Levofloxacin, reference compound]
- MIC: S. aureus ARC516 (S. aureus ARC516): 0.25 µg/mL (≈ 0.692 µM)
- MIC: S. pneumoniae ATCC49619 (S. pneumoniae ATCC49619): 0.5 µg/mL (≈ 1.38 µM)
- MIC: S. aureus AP607004 (MRQR) [1]: 8 µg/mL (≈ 22.1 µM)
- IC50 [6]: 79 µM
- IC50 [7]: 88 µM
- MIC: S. pneumoniae ARC2205 (ERQR) [3]: 16 µg/mL (≈ 44.3 µM)

SMILES: N#Cc1ccc2ccc(=O)n(CCN3CC[C@H](NCc4cc5c(cn4)OCCO5)[C@H](F)C3)c2c1 [NBTI 3, 1-[2-[(3R,4S)-4-(2,3-Dihydro-[1,4]dioxino[2,3-c]pyridin-7-ylmethylamino)-3-fluoro-1-piperidyl]ethyl]-2-oxo-quinoline-7-carbonitrile]
- susceptibility of fluoroquinolone resistant isolate ARC4680 ([8]; N. gonorrhoeae ARC4680): reduced susceptibility
- susceptibility of spontaneous ETX0914 resistant mutants [8]: fully susceptible

SMILES: CO[C@@H]1[C@@H](OC(N)=O)[C@@H](O)[C@H](Oc2ccc3c(O)c(NC(=O)c4ccc(O)c(CC=C(C)C)c4)c(=O)oc3c2C)OC1(C)C [Novobiocin 4, Novobiocin]
- susceptibility of fluoroquinolone resistant clinical isolates ([8]; S. aureus ARC2381, S. pneumoniae ARC2480, N. gonorrhoeae ARC4672, ARC4680, ARC4676): fully susceptible
- susceptibility of spontaneous ETX0914 resistant mutants [8]: fully susceptible

SMILES: CC1COc2c(N3CCN(C)CC3)c(F)cc3c(=O)c(C(=O)O)cn1c23 (centres unmarked) [Ofloxacin, reference compound]
- MIC90, gonococcal infection (N. gonorrhoeae) (Neisseria gonorrhoeae; [9]): 0.25 to 0.5 µg/mL
- MIC90, skin infection (S. aureus) (Staphylococcus aureus; Table 2): 2 µg/mL (≈ 5.53 µM)
